Measured values from PMC5385520 (Scientific Reports, 2017).
Read-outs that look alike come from different tables or passages of the source.

Legend:
[1] = molecular target: T1, hDDO (human D-aspartate oxidase) (Homo sapiens, UniProt Q99489); assay: coupled HRP / Amplex UltraRed fluorescence assay; assay type: biochemical; design: gene DDO; recombinant
T1 sequence (Q99489 1-341): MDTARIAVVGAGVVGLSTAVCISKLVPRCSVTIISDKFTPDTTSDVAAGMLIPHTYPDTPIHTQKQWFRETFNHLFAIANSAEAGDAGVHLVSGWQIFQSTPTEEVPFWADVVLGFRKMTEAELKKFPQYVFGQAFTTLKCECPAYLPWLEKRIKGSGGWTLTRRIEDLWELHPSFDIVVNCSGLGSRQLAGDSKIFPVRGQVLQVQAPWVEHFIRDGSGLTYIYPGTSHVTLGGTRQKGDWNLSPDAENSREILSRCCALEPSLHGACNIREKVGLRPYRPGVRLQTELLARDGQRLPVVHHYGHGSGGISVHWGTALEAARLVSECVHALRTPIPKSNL

[2] = molecular target: T2, mDDO (mouse D-aspartate oxidase) (Mus musculus, UniProt Q922Z0); assay: coupled HRP / Amplex UltraRed fluorescence assay; assay type: biochemical; conditions: D-Asp 7.5 mM; FAD 4 and 100 μM; inactive up to 300 μM
T2 construct: gene Ddo; recombinant
T2 sequence (Q922Z0 1-341): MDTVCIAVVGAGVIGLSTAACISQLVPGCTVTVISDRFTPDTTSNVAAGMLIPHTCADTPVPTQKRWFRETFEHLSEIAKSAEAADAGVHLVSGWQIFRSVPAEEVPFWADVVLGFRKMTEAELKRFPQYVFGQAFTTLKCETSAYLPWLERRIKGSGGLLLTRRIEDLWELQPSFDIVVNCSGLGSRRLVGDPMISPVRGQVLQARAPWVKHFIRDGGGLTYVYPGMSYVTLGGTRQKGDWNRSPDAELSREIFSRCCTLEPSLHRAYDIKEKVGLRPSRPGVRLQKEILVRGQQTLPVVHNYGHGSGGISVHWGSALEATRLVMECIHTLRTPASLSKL

[3] = molecular target: T1, hDDO (human D-aspartate oxidase); assay: biochemical; design: gene DDO
[4] = read-out: Concentration (μM) / 1000
[5] = read-out: Concentration (μM) / 100

Structure (SMILES) | activity at 1000 µM [1, 4] | activity at 1000 µM [1, 5] | other results
CN1CCN(C2=Nc3cc(Cl)ccc3Nc3ccccc32)CC1 [clozapine] | – | > 95% | coupled HRP / Amplex UltraRed fluorescence assay [2]: both mDDO and hDDO was unaffected by clozapine at all concentrations tested
O=C(CCCN1CCC(O)(c2ccc(Cl)cc2)CC1)c1ccc(F)cc1 [haloperidol] | – | 100% | –
Cc1cc2c(s1)Nc1ccccc1N=C2N1CCN(C)CC1 [olanzapine] | – | – | IC50 [3]: 23.4 ± 1.6 µM

More lines, main results first:

activity at 1000 µM [1, 4] | Structure (SMILES) | activity at 1000 µM [1, 5] | other results
89% | CC(NC(C)(C)C)C(=O)c1cccc(Cl)c1 (stereo not drawn) [bupropion] | – | –
> 90% | CN(C)CCCN1c2ccccc2Sc2ccc(Cl)cc21 [chlorpromazine] | – | –
